# Assay results from patent publication US9415055B2, “Cyclic amines” (H. Lundbeck A/S, priority 2012, dated 2016).
# Target: P2X7 receptor (Homo sapiens (Human), UniProt Q99572)
# Experiment: P2X7 FLIPR assay: antagonism of BzATP response in 293 HEK cells stably expressing P2X7 receptor
# Type: cell-based
# Settings: FLIPR fluorescence (Fluo-4), agonist BzATP, 293 HEK cells stably transfected with P2X7 receptor
# How it was run: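 Antagonist IC50 derived from FLIPR Tetra Fluo-4 calcium signal evoked by BzATP. Compound pre-incubation was 30 min at room temperature on P2X7-expressing HEK293 cells, seeded 24 h before in low-serum medium and dye-loaded 30 min at 37 °C then 30 min at RT.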
# P2X7 receptor, sequence (Q99572 whole entry): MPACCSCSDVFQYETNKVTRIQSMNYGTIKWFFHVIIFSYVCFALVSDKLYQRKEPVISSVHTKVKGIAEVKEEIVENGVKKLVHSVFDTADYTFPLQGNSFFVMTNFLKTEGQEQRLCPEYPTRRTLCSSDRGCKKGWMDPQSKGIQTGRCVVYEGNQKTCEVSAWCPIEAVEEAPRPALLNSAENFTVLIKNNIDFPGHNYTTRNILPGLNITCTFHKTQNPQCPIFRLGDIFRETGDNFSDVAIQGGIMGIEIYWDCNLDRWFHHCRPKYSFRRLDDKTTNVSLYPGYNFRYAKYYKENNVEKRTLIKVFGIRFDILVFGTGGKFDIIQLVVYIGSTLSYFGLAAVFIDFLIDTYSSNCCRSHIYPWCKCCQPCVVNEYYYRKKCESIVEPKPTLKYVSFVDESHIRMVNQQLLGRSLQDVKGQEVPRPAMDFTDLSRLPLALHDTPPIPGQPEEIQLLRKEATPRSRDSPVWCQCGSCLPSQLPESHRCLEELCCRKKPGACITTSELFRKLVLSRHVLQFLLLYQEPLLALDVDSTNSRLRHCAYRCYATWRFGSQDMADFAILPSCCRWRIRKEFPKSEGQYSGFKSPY
row,SMILES,IC50
1,"O=C(NCC(c1ccc(C2CC2)nc1)N1CCOCC1)c1cccc(Cl)c1Cl (centres unmarked) [2,3-Dichloro-N-[2-(6-cyclopropyl-pyridin-3-yl)-2-morpholin-4-yl-ethyl]-benzamide]",8.2 nM
2,"O=C(NC[C@H](c1ccc(Cl)cc1)N1CCOCC1)c1cccc(Cl)c1Cl [2,3-Dichloro-N-[(S)-2-(4-chloro-phenyl)-2-morpholin-4-yl-ethyl]benzamide]",0.62 nM
3,"Cc1cccc(C(=O)NCC(c2ccncc2)N2CCOCC2)c1C (centres unmarked) [2,3-Dimethyl-N-(2-morpholin-4-yl-2-pyridin-4-yl-ethyl)-benzamide]",1400 nM
4,"Cc1ncc(C(CNC(=O)c2cccc(Cl)c2Cl)N2CCCCC2C(C)C)cn1 (centres unmarked) [2,3-dichloro-N-(2-(2-isopropylpiperidin-1-yl)-2-(2-methylpyrimidin-5-yl)ethyl)benzamide]",1900 nM
5,"Cc1ncc(C(CNC(=O)c2cccc(Cl)c2Cl)N2CCCCC2C)cn1 (centres unmarked) [2,3-dichloro-N-(2-(2-methylpiperidin-1-yl)-2-(2-methylpyrimidin-5-yl)ethyl)benzamide]",310 nM
6,"Cc1ncc(C(CNC(=O)c2cccc(Cl)c2Cl)N2CC(F)(F)C(F)(F)C2)cn1 (centres unmarked) [2,3-dichloro-N-(2-(2-methylpyrimidin-5-yl)-2-(3,3,4,4-tetrafluoropyrrolidin-1-yl)ethyl)benzamide]",2.6 nM
7,"Cc1ncc(C(CNC(=O)c2cccc(Cl)c2Cl)N2CCC(C)C2)cn1 (centres unmarked) [2,3-dichloro-N-(2-(2-methylpyrimidin-5-yl)-2-(3-methylpyrrolidin-1-yl)ethyl)benzamide]",1000 nM
8,"O=C(NCC(c1ccc(Cl)cc1)N1CCCC1)c1cccc(Cl)c1Cl (centres unmarked) [2,3-dichloro-N-(2-(4-chlorophenyl)-24 pyrrolidin-1-yl)ethyl)benzamide]",1800 nM
9,"Cc1ncc(C(CNC(=O)c2cccc(Cl)c2Cl)N2CCC(Cl)CC2)cn1 (centres unmarked) [2,3-dichloro-N-(2-(4-chloropiperidin-1-yl)-2-(2-methylpyrimidin-5-yl)ethyl)benzamide]",5.7 nM
10,"Cc1ncc(C(CNC(=O)c2cccc(Cl)c2Cl)N2CCOCC2)cn1 (centres unmarked) [2,3-dichloro-N-[2-(2-methylpyrimidin-5-yl)-2-morpholino-ethy] [2,3-Dichloro-N-[2-(2-methylpyrimidin-5-yl)-2-motpholino-ethyl]benzamide]",21 nM
11,"O=C(NCC(c1cnc(C(F)(F)F)nc1)N1CCOCC1)c1cccc(Cl)c1Cl (centres unmarked) [2,3-dichloro-N-[2-morpholino-2-[2-(trifluoromethyl)pyrimidin] [2,3-Dichloro-N-[2-morpholino-2-[2-(trifluoromethyl)pyrimidin-5-yl]ethyl]benzamide]",8.2 nM
12,"O=C(NCC(c1ccc(C(F)(F)F)nc1)N1CCOCC1)c1cccc(Cl)c1Cl (centres unmarked) [2,3-dichloro-N-[2-morpholino-2-[6-(trifluoromethyl)-3-pyridy] [2,3-Dichloro-N-[2-morpholino-2-[6-(trifluoromethyl)-3-pyridyl]ethyl]benzamide]",4.6 nM
13,"Cc1ncc(C(CNC(=O)c2c(Cl)cccc2Cl)N2CCCOCC2)cn1 (centres unmarked) [2,6-dichloro-N-(2-(2-methylpyrimidin-5-yl)-2-(1,4-oxazepan-4-yl)ethyl)benzamide]",740 nM

# Now from value to compound:
row,IC50,SMILES
1,2700 nM,"Cc1cccc(C(=O)NCC(c2cccnc2)N2CCOCC2)c1C (centres unmarked) [2,3-Dimethyl-N-(2-morpholin-4-yl-2-pyridin-3-yl-ethyl)-benzamide]"
2,29 nM,"Cc1ncc(C(CNC(=O)c2cccc(Cl)c2Cl)N2CCCOCC2)cn1 (centres unmarked) [2,3-dichloro-N-(2-(2-methylpyrimidin-5-yl)-2-(1,4-oxazepan-4-yl)ethyl)benzamide]"
3,170 nM,"Cc1ncc(C(CNC(=O)c2cccc(Cl)c2Cl)N2CCCC(C)C2)cn1 (centres unmarked) [2,3-dichloro-N-(2-(3-methylpiperidin-1-yl)-2-(2-methylpyrimidin-5-yl)ethyl)benzamide]"
4,6.6 nM,"CN(C)c1ncc(C(CNC(=O)c2cccc(Cl)c2Cl)N2CCC(F)(F)CC2)cn1 (centres unmarked) [2,3-dichloro-N-(2-(4,4-difluoropiperidin-1-yl)-2-(2-(dimethylamino)pyrimidin-5-yl)ethyl)benzamide]"
5,0.65 nM,"O=C(NCC(c1cnc(C(F)(F)F)nc1)N1CCC(F)(F)CC1)c1cccc(Cl)c1Cl (centres unmarked) [2,3-dichloro-N-(2-(4,4-difluoropiperidin-1-yl)-2-(2-(trifluoromethyl)pyrimidin-5-yl)ethyl)benzamide]"
6,2500 nM,"CC1(C)CCN(C(CNC(=O)c2cccc(Cl)c2Cl)c2cnc(C(F)(F)F)nc2)CC1 (centres unmarked) [2,3-dichloro-N-(2-(4,4-dimethylpiperidin-1-yl)-2-(2-(trifluoromethyl)pyrimidin-5-yl)ethyl)benzamide]"
7,17 nM,"O=C(NCC(c1ccc(Cl)cc1)N1CCCOCC1)c1cccc(Cl)c1Cl (centres unmarked) [2,3-dichloro-N-(2-(4-chlorophenyl)-2-(1,4-oxazepan-4-yl)ethyl)benzamide]"
8,3800 nM,"COC1CCN(C(CNC(=O)c2cccc(Cl)c2Cl)c2cnc(C)nc2)CC1 (centres unmarked) [2,3-dichloro-N-(2-(4-methoxypiperidin-1-yl)-2-(2-methylpyrimidin-5-yl)ethyl)benzamide]"
9,4.3 nM,"Cc1ncc(C(CNC(=O)c2cccc(Cl)c2Cl)N2CCC(F)(F)CC2)cn1 (centres unmarked) [2,3-dichloro-N-[2-(4,4-difluoro-1-piperidyl)-2-(2-methylpyri] [2,3-dichloro-N-(2-(4,4-difluoropiperidin-1-yl)-2-(2-methylpyrimidin-5-yl)ethyl)benzamide]"
10,0.6 nM,"COc1ccc(C(CNC(=O)c2cccc(Cl)c2Cl)N2CCC(F)(F)CC2)cc1 (centres unmarked) [2,3-dichloro-N-[2-(4,4-difluoro-1-piperidyl)-2-(4-methoxyphenyl)ethyl]benzamide]"
11,970 nM,"Cc1ncc(C(CNC(=O)c2ccc(Cl)cc2Cl)N2CCC(=O)CC2)cn1 (centres unmarked) [2,4-dichloro-N-(2-(2-methylpyrimidin-5-yl)-2-(-1-yl)ethyl)benzamide]"
12,44 nM,"Cc1ncc(C(CNC(=O)c2ccc(Cl)cc2Cl)N2CCC(F)(F)CC2)cn1 (centres unmarked) [2,4-dichloro-N-(2-(4,4-difluoropiperidin-1-yl)-2-(2-methylpyrimidin-5-yl)ethyl)benzamide]"
13,280 nM,"Cc1ncc(C(CNC(=O)c2ccc(Cl)cc2Cl)N2CCC(Cl)CC2)cn1 (centres unmarked) [2,4-dichloro-N-(2-(4-chloropiperidin-1-yl)-2-(2-methylpyrimidin-5-yl)ethyl)benzamide]"
14,12 nM,"O=C(NCC(c1cnc(C(F)(F)F)nc1)N1CCOCC1)c1ccc(Cl)cc1Cl (centres unmarked) [2,4-dichloro-N-(2-morpholino-2-(2-(trifluoromethyl)pyrimidin-5-yl)ethyl)benzamide]"
15,120 nM,"Cc1ncc(C(CNC(=O)c2c(Cl)cccc2Cl)N2CCOCC2)cn1 (centres unmarked) [2,6-dichloro-N-(2-(2-methylpyrimidin-5-yl)-2-morpholinoethyl)benzamide]"
16,1100 nM,"Cc1ncc(C(CNC(=O)c2c(F)cccc2F)N2CCOCC2)cn1 (centres unmarked) [2,6-difluoro-N-(2-(2-methylpyrimidin-5-yl)-2-morpholinoethyl)benzamide]"
17,38 nM,Cc1ccc(C(CNC(=O)c2cc(C)ccc2Cl)N2CCOCC2)cc1 (centres unmarked) [2-Chloro-5-methyl-N-(2-morpholin-4-yl-2-p-tolyl-ethyl)-benzamide]
18,3000 nM,Cc1ccc(Cl)c(C(=O)NCC(c2cccnc2)N2CCOCC2)c1 (centres unmarked) [2-Chloro-5-methyl-N-(2-morpholin-4-yl-2-pyridin-3-yl-ethyl)-benzamide]
19,2700 nM,Cc1ccc(Cl)c(C(=O)NCC(c2ccncc2)N2CCOCC2)c1 (centres unmarked) [2-Chloro-5-methyl-N-(2-morpholin-4-yl-2-pyridin-4-yl-ethyl)-benzamide]
